The text below walks through data of ChEMBL document CHEMBL4482313, “Method and compounds for inhibition of cell death” (2012).

Calls of active or inactive are those of the source. The calls are words filed in the database; no cut-off is given here.

A short description of data set [1]: Drug localization in cytoplasm of human HeLa cells at 20 to 50 uM incubated for 2 hrs by confocal laser-scanning microscopy. Format: ADME, subcellular.
The target in data set [2] is T1, Serine protease HTRA2, mitochondrial (Homo sapiens) (UniProt O43464).
T1 sequence (whole entry): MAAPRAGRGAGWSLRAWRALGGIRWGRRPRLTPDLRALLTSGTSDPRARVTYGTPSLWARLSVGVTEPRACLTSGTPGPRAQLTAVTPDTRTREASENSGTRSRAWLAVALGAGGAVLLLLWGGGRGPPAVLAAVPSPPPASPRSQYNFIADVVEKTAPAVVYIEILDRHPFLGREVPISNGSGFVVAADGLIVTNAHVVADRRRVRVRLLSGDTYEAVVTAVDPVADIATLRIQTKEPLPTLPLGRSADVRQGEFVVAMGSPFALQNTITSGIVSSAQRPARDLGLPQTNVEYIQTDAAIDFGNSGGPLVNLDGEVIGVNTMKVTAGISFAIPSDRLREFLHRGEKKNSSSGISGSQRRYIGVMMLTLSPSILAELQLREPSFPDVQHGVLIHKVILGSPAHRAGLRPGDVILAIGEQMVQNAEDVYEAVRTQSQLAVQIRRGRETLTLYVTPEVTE
Nature of the data set: Inhibition of MBP-fused Omi/HtrA2 (134 to 458 residues) (unknown origin) expressed in TB1 Escherichia coli at 10 uM pre-incubated for 15 mins before higher 2 times FITC-labeled dephosphorylated casein substrate addition and measured every 5 mins for 30 mins by fluorescence assay.

Data set [3] is described as follows: Inhibition of bovine trypsin incubated for 20 mins by fluorescence based assay. The arrangement: species or system Bos taurus.
Data set [4] has as its target T1, Serine protease HTRA2, mitochondrial (Homo sapiens). Nature of the data set: Inhibition of His-tagged Omi/HtrA2 (134 to 458 residues) (unknown origin) expressed in TB1 Escherichia coli at 10 to 50 uM pre-incubated for 15 mins before FITC-labeled dephosphorylated casein substrate addition and measured every 5 mins for 30 mins by fluorescence assay.
Data set [5] is described as follows: Inhibition of canine F10a using fluorogenic substrate incubated for 20 mins by fluorescence based assay. The arrangement: species or system Canis lupus familiaris.
Data set [6] concerns the target T1, Serine protease HTRA2, mitochondrial (Homo sapiens).
Data set [7] has the same target. Nature of the data set: Inhibition of His-tagged Omi/HtrA2 (134 to 458 residues) (unknown origin) expressed in TB1 Escherichia coli at 80 uM pre-incubated for 10 mins before un-labeled beta-casein substrate addition and measured after 30 mins by Coomassie blue staining based SDS-PAGE analysis.
In data set [8] the test system is Fibroblast. Format: cell-based. The note with it: mouse, 36 h, 25 µM.
For data set [9], the target named is T1, Serine protease HTRA2, mitochondrial (Homo sapiens). Nature of the data set: Inhibition of MBP-fused Omi/HtrA2 (134 to 458 residues) (unknown origin) expressed in TB1 Escherichia coli at 20 uM pre-incubated for 15 mins before FITC-labeled dephosphorylated casein substrate addition and measured every 5 mins for 30 mins by fluorescence assay relative to control.

For data set [10] the target is unchanged. Nature of the data set: Inhibition of His-tagged Omi/HtrA2 (134 to 458 residues) (unknown origin) expressed in TB1 Escherichia coli at 10 to 100 uM pre-incubated for 10 mins before un-labeled beta-casein substrate addition and measured after 30 mins by Coomassie blue staining based SDS-PAGE analysis.
The target is the same in data set [11]. Nature of the data set: Inhibition of MBP-fused Omi/HtrA2 (134 to 458 residues) (unknown origin) expressed in TB1 Escherichia coli at 20 to 100 uM pre-incubated for 15 mins before FITC-labeled dephosphorylated casein substrate addition and measured every 5 mins for 30 mins by fluorescence assay.
For data set [12], the system named is Fibroblast. The class given is cell-based. The following applies: mouse, 36 h.
Data set [13] deals with Fibroblast. Format: cell-based. The following applies: mouse, 36 h, 25 µM. This is another data set of the same source.
For data set [14], the target named is T1, Serine protease HTRA2, mitochondrial (Homo sapiens). Nature of the data set: Irreversible inhibition of MBP-fused Omi/HtrA2 (134 to 458 residues) (unknown origin) expressed in TB1 Escherichia coli at 20 to 100 uM pre-incubated for 40 mins to 1 hr before FITC-labeled dephosphorylated casein substrate addition and measured every 5 mins for 30 mins by fluorescence assay.

In data set [15] the target is Serine protease HTRA1 (Homo sapiens) (UniProt Q92743). Nature of the data set: Inhibition of His-tagged L56/HtrA1 (140 to 480 residues) (unknown origin) expressed in TB1 Escherichia coli at 10 to 50 uM pre-incubated for 15 mins before FITC-labeled dephosphorylated casein substrate addition and measured every 5 mins for 30 mins by fluorescence assay.
Sequence of Serine protease HTRA1 (Homo sapiens) (Q92743 whole entry, the tested form may be a part): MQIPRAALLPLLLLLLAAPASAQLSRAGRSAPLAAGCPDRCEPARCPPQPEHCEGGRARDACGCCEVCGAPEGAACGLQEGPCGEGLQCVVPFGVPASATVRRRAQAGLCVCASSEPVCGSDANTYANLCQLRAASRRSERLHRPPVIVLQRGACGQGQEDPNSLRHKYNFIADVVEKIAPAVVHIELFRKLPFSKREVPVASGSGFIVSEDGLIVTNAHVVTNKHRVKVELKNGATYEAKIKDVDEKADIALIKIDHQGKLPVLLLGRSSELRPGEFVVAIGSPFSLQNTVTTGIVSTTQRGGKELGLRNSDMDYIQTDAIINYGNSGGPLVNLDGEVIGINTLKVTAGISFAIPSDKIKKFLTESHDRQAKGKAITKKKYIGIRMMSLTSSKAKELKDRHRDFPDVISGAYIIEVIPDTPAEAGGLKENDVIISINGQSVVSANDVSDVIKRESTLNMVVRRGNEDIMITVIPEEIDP
The species named for the next data set is Canis lupus familiaris. Nature of the data set: Inhibition of cisplatin-induced apoptosis in dog MPT cells at 20 to 50 uM pre-incubated for 20 mins before cisplatin challenge for 6 hrs by annexin-V staining based flow cytometry. Format: functional, cell-based. (Flow cytometry measures light scatter and fluorescence of single cells or particles in a stream.)

One may read the inhibition as the drop in the measured response relative to a control, in per cent. Usually IC50 stands for the concentration needed to halve the response being measured. The low end stands for greater potency, the high end for weaker potency. Regarding `Cc1cccc([N+](=O)[O-])c1-c1ccc(C=C2C(=O)N(c3ccccc3)C(=S)N(c3ccccc3)C2=O)o1`, in data set [1], the Drug uptake entry is recorded as “Active”. In addition, the inhibition result in data set [2], in data set [4] and in data set [14] was “inactive” in each case. Further, the IC50 was over 500 µM in data set [3] and 360 to 430 µM in data set [5]. Also, the inhibition in data set [6] was under 40%; in [7], 100%; in [9], over 78%; in data set [10], “Dose-dependent effect”; in the data set listed under Canis lupus familiaris, “Dose-dependent effect”. The Activity entry with Fibroblast [8], with Fibroblast [12] and with Fibroblast [13] was “Non-Toxic” each time. The inhibition result in [11] and in data set [15] was “Active” in each case.

Compound `Cc1ccc([N+](=O)[O-])cc1-c1ccc(C=C2C(=O)N(c3ccccc3)C(=S)N(c3ccccc3)C2=O)o1` showed an inhibition in [9] of 58%. Also, the inhibition result in data set [11] is “Active”. Further, the inhibition result in [14] was “inactive”.

Take `COc1ccc(-c2ccc(C=C3C(=O)N(c4ccccc4)C(=S)N(c4ccccc4)C3=O)o2)cc1Cl`: the inhibition entry in data set [11] is “Active”. In addition, in [14], the inhibition entry was “inactive”.

Take `O=C(O)c1cccc(-c2ccc(C=C3C(=O)N(c4ccccc4)C(=S)N(c4ccccc4)C3=O)o2)c1`: the inhibition entry in data set [11] was “Active”. Also, the inhibition result in [14] was “inactive”.
